Results taken from publication PMC5766630, “Non-estrogenic Xanthohumol Derivatives Mitigate Insulin Resistance and Cognitive Impairment in High-Fat Diet-induced Obese Mice” (Scientific Reports, 2018).

Tests used:
MCF-7 cells = experiment: MCF-7 cell proliferation, sulforhodamine B (SRB) assay; assay type: cell-based, human; conditions: 48 h exposure, vs vehicle control; for MCF-7 cell viability/proliferation at low concentrations: 0.001–1 µM
Method: The SRB assay has been used to study the effects of phytochemicals such as XN, DXN and 8-PN on cell proliferation of various cancer cell lines, including MCF-7 cells[91],[92]. SRB is a dye that binds to cellular proteins of adherent cells and the absorbance readings are a measure of the number of viable cells (cell mass) attached to the culture plate after incubation with the test compounds (samples) in comparison with vehicle control cells. The cell mass is then extrapolated as a measurement of cell viability and cell proliferation. Increased proliferation of MCF-7 cells is one of the measures of estrogenicity of phytochemicals. MCF-7 cells were plated at 10,000 cells/well in 96-well plates in DMEM medium containing 10% charcoal-stripped FBS and antibiotics. […] After incubation with the test compounds for 48 h, the cell culture medium was removed from each well of the 96-well plate and the cells were fixed for 1 h with 10% trichloroacetic acid. The cells on the plate were washed five with distilled water, air-dried, and then stained with SRB dye (0.4% w/v in 1% acetic acid). Excess dye was removed by washing the plate five times with 1% acetic acid. The plates were air-dried and the adsorbed dye was solubilized in 10 mM Tris buffer for 5 min on a shaker before reading the optical density (OD) at 565 nm. The percentage cell viability/proliferation was calculated as follows: (ODSample−ODZeroblank)/(ODControl−ODZeroblank)×100. Mean values and the coefficient of variation (CV) from six replicate wells were calculated and a one-way ANOVA was used to compare statistical differences between treated and control cells, with p < 0.05 as the level of significance.

HepG2 cells = experiment: MTT cell viability assay, HepG2; assay type: cell-based, human; conditions: 24 h exposure, vs vehicle-treated control cells
Method: For cell viability experiments using the MTT assay, mouse C2C12 skeletal muscle myoblasts (ATCC; Manassas, VA, USA) and the human hepatocyte cell line, HepG2 (ATCC; Manassas, VA, USA), were plated in 96-well plates at a density of 4,000 to 10,000 cells per well in 200 μL of DMEM medium supplemented with 10% FBS, 1% glutamine, 1 mM of sodium pyruvate, 100 units/mL penicillin, and 100 μg/mL streptomycin. After incubating 48 h, the medium was removed and the cells were treated with fresh solutions of various concentrations of XN, DXN or TXN in phenol red-free DMEM plus supplements. The final concentrations of XN, DXN, TXN were 1, 2, 5, 8, 10, 25, or 50 μM, in quadruplicate wells. The plates were then incubated for 1 h (for C2C12) or 24 h for HepG2. After removing the medium, the cells were incubated for 2 h with a 0.5 mg/mL solution of MTT in phenol red-free culture medium. After removing the medium and adding a solution of acidified isopropanol to each well, the absorbance of each well was measured at 570 nm by using a spectrometer (SpectraMax 190, Molecular Devices, Sunnyvale, CA, USA). Cell viability of compound-treated cells was calculated as % absorbance of vehicle-treated control cells (Supplementary Fig. S1a and S1b).

HFD-fed C57BL/6 J mice = system: HFD-fed C57BL/6 J mice; parameters: method as in PMID 26976708; conditions: oral, 60 mg/kg/day; cited from earlier work
human LDL = system: human LDL; parameters: method as in PMID 14565769; conditions: cited from earlier work
[1] = LC-MS/MS analysis of XN, DXN and TXN in mouse liver, plasma and muscle; assay type: in vivo; conditions: for Plasma concentration, fold greater than combined XN + IX / Muscle concentration, fold greater than combined XN + IX / Liver concentration, fold greater than combined XN + IX: HFD mice, 30 mg/kg/day in diet, 13 weeks; for Muscle concentration, fold greater than combined XN + IX: hind leg skeletal muscle; for Liver concentration, fold greater than combined XN + IX: steady state
From the text: Nine-week old male C57BL/6J mice, obtained from The Jackson Laboratory (Bar Harbor, ME, USA), were housed individually in plastic cages under a 12–12-hr light-dark cycle. They were assigned randomly to four groups consisting of 12 mice each. One group (control) was fed a HFD (Dyets Inc., Bethlehem, PA, USA) containing 60%, 20% and 20% total calories from fat, carbohydrate and protein, respectively, and the other three groups were fed the HFD containing XN, DXN, or TXN. The test compounds were dissolved in an isotropic mixture of oleic acid:propylene glycol:Tween 80, 0.9:1:1 by weight (OPT) before incorporation into the HFD. The control diet contained an identical amount of OPT. All diets were prepared in pellet form by Dyets, Inc. (Bethlehem, PA, USA). The mouse diets were formulated to deliver a dose of 30 mg test compound per kg body weight per day. Food intake was measured three times per week and body weights were recorded weekly. At the end of 13 weeks of feeding, the mice were euthanized and blood, liver and skeletal muscle were collected for analyses. All animal protocols were approved by Institutional Animal Care and Use Committee (IACUC) at Oregon State University. Animal experiments were carried out in accordance with the relevant guidelines and regulations.
Liver and plasma from each mouse were subjected to enzymatic hydrolysis, extracted and analyzed using the paper strip extraction technique as previously described[36],[96]. For skeletal muscle, approximately 200 mg of frozen muscle tissue were placed into tubes containing ceramic beads (1.4 mm Ceramic, Bulk Beads, Fisher Scientific, Pittsburgh, PA, USA) and methanol:water (90:10; 500 μL/200 mg tissue) and homogenized using a Precellys 24 (PEQLAB Biotechnology GmbH, Germany). The tissue was homogenized for 3 × 30 sec at 6,500 rpm with 20 sec intervals and then centrifuged at 15,700 × g for 10 minutes and 100 μl of supernatant was used for the paper strip extraction as previously described[36],[96]. Concentrations of XN, DXN and TXN were calculated using an internal standard, 2′,4-dihydroxychalcone (DHC), with matrix-based calibration curves and Analyst Software (Analyst 1.5, AB Sciex, Foster City, CA, USA). Samples were analyzed by LC-MS/MS using an AB Sciex 4000 Q-trap triple quadrupole mass spectrometer using a source temperature of 600 °C and a needle voltage of −4500 V. The source, curtain and collision gases were all nitrogen. Analytes were separated by high performance liquid chromatography (HPLC) using a 2.1 × 50 mm Agilent Zorbax 300 SB – C8 3.5 µm column (Agilent, Santa Clara, CA, USA). The elution gradient was 25 to 60% solvent B (0.1% formic acid in acetonitrile) in solvent A (aqueous 0.1% formic acid) in 2.6 minutes using a flow rate of 0.5 ml/min after an initial 1.4 min at 25% solvent B. The gradient was then increased to 100% solvent B in 0.1 min and held at 100% B for 1.4 min, then dropped to 25% B in 0.25 minutes, followed by re-equilibration with 25% B for 9.25 minutes. SRM transitions for quantification were: m/z 353 → 119 for XN, m/z 353 → 233 for IX, m/z 339 → 219 for 8-PN, m/z 355 → 249 for DXN, m/z 357 → 251 for TXN, and m/z 239 → 119 for DHC.

Row | Plasma concentration, fold greater than combined XN + IX [1] | Muscle concentration, fold greater than combined XN + IX [1] | Liver concentration, fold greater than combined XN + IX [1] | concentration at 13 weeks ([1]; male, C57BL/6J, mouse, liver, oral dosing at 30 mg/kg/day, read-out: Liver concentration (highest measured)) | Liver tissue concentration (highest measured) ([1]; mouse dose of 30 mg/kg/day) | Structure (SMILES) | MCF-7 cell viability/proliferation at 10 µM (MCF-7 cells) | MCF-7 cell viability/proliferation at low concentrations (MCF-7 cells) | HepG2 cell viability (MTT), 1–25 µM (HepG2 cells) | HOMA-IR, change vs vehicle/HFD controls (HFD-fed C57BL/6 J mice) | Interleukin-6 (IL-6), change vs vehicle/HFD controls (HFD-fed C57BL/6 J mice) | Leptin, change vs vehicle/HFD controls (HFD-fed C57BL/6 J mice) | Plasma LDL-c, change vs vehicle/HFD controls (HFD-fed C57BL/6 J mice) | Plasma PCSK9, change vs vehicle/HFD controls (HFD-fed C57BL/6 J mice) | Inhibition of SIN-1-induced lipid peroxidation of human LDL (human LDL)
1 | – | – | – | – | – | COc1cc(O)c(CC=C(C)C)c(O)c1C(=O)/C=C/c1ccc(O)cc1 [XN, 3′-[3,3-dimethylallyl]-2′,4′,4-trihydroxy-6′-methoxychalcone] | significantly decreased | did not produce a significant increase | did not alter cell viability | −52% | −78% | −41% | −80% | −44% | effectively inhibits
2 | 7 fold | 7 fold | 6 fold | – | – | COc1cc(O)c(CC=C(C)C)c(O)c1C(=O)CCc1ccc(O)cc1 [DXN, α,β-Dihydroxanthohumol] | significantly decreased | did not produce a significant increase | did not alter cell viability | – | – | – | – | – | –
3 | 10 fold | 5 fold | 12 fold | 5 µM | 5 nmol/g | COc1cc(O)c(CCC(C)C)c(O)c1C(=O)CCc1ccc(O)cc1 [TXN, tetrahydroxanthohumol] | significantly decreased | did not produce a significant increase | did not alter cell viability | – | – | – | – | – | little or negligible protection
